The term inhibition denotes the relative decrease from the control value, in per cent.

The subject of one assay is LTC4. Description: In vivo murine zymosan peritonitis assay, LTC4 (lipoxygenase pathway). Details: species or system mouse (male CD-1). The conditions noted are these: p.o., mouse, standard drugs. The protocol: The compounds of the invention are evaluated for their ability to inhibit the lipoxygenase and/or cyclooxygenase pathways of arachidonic acid metabolism in the in vivo murine zymosan peritonitis assay.
(§1) This assay is carried out as follows:
Male CD-1 mice (8 weeks old) are placed in plastic boxes in groups of six. Animals are injected with 1 ml i.p. of either 1% zymosan in pyrogen free 0.9% saline or saline (unstimulated control). Compounds are dosed orally 1 hour prior to zymosan injection. Twenty minutes after zymosan injection, the mice are asphyxiated by CO2 inhalation and the peritoneal cavity is lavaged with 2 ml ice cold Hanks Balanced Salt Solution (HBSS) without CaCl2, MgSO4 ·7H2 O and MgCL2 ·6H2 O. Peritoneal lavage fluid from each mouse is removed by syringe and placed in 5 ml plastic test tubes put on ice and volume is noted. Preparation of samples for evaluation by ELISA is as follows: Samples are centrifuged at 800×g for 15 minutes; 1 ml of the supernatant is added to 8 ml ice cold methanol and kept at -70° C. overnight to precipitate protein; and samples are then centrifuged at 800×g for 15 minutes, followed by a drying procedure in a Savant speed vac concentrator. The samples are reconstituted with 1 ml ice cold ELISA buffer and stored at -70° C. until assayed. The assay for eicosanoids (LTC4 and 6-keto-PGF1α) is performed according to conventional ELISA procedures.
Compounds to be tested orally are suspended in 0.5% Tween 80. Compounds to be tested intraperitoneally are suspended in 0.5% methylcellulose in 0.9% saline.
The total metabolite level in lavage fluid/mouse is calculated and the significance is determined by a one-way analysis of variance with LSD comparisons to control (p≤0.05). Drug effects are expressed as a percent change from control values.

Assay [1] concerns LTB4 synthesis by rat glycogen-elicited polymorphonuclear leukocytes (lipoxygenase). Description: Inhibition of LTB4 synthesis by rat glycogen-elicited polymorphonuclear leukocytes (PMN). It counts as cell-based, rat (female Wistar). The conditions noted are these: Leukocyte, A 23187 and exogenous AA; for inhibition at 0.5 µM: negative value denotes potentiation. From the text:
This is especially true with respect to 5,12-diHETE, which is also denoted as LTB4 [see Ford-Hitchinson, J. Roy. Soc. Med., 74, 831 (1981)]. Compounds which inhibit the PLA2 -mediated release of arachidonic acid thereby effectively prevent the oxidation of arachidonic acid to the various leukotriene products via the lipoxygenase cascade. Accordingly, the specificity of action of PLA2 inhibitors can be determined by the activity of test compounds in this assay, which measures the ability of compounds to inhibit the synthesis of LTB4 by rat glycogen-elicited polymorphonuclear leukocytes (PMN) in the presence of exogenous substrate.
(§2) The assay is carried out as follows:
(§3) Rat polymorphonuclear leukocytes (PMNs) are obtained from female Wistar rats (150-200 g) which receive an injection of 6% glycogen (10 ml i.p.). Rats are sacrificed 18-24 hours post injection by CO2 asphyxiation and the elicited cells are harvested by peritoneal lavage using physiological saline (0.9% NaCl). The exudate is centrifuged at 400×g for 10 minutes. The supernatant fluid is discarded and the cell pellet is resuspended to a concentration of 2.0×10^7 cells/ml in HBSS containing Ca^++ and Mg^++ and 10 μM L-cysteine.
(§4) To 1 ml aliquots of cell suspension, test drugs or vehicle are added, then preincubated at 37° C. for 10 minutes. A 23187 (1 μM), [^3 H]-AA (3.0 μCi/ml) and unlabeled AA (1 μM) are then added and the samples are further incubated for 10 minutes. The reaction is terminated by centrifugation and pelleting cells. Supernatants are then analyzed by HPLC analysis on a 15 cm×4.6 mm ID supelcosil LC-18 (Supelco)(3M) column, using a two solvent system at a flow rate of 1.4 ml total flow as follows:
Gradient: (system is equillibrated with Solvent A)
(§5) Percent solvent changes are accomplished in a linear fashion.
(§6) Injections: 150 μl of each supernatant is injected directly onto column and ^3 H arachidonic acid metabolites are monitored using an on-line radioactivity detector (Ramona, IN/US, Fairfield, NJ).
(§7) Standards: 10^4 -2.0×10^4 dpm of eicosanoids of interest are injected in 90 μl EtOH cocktail.
(§8) Co-chromatography with standard [^3 H] leukotriene B4 (LTB4) in medium of stimulated PMN exposed to drug is compared to that found in medium of stimulated cells exposed to no drug, generating percent inhibition.
(§9) Results are expressed as percent inhibition at a given compound dose or as an IC50 value.

The test system of assay [2] is paw edema induced by exogenous PLA2 (snake, A. piscivorus piscivorus). Description: In vivo PLA2 murine paw edema assay. Further details: species or system mouse (male CD-1). The conditions noted are these: for change in vivo at 1 mg/kg: Mus musculus, ip, 0.5 h; for % Change in Edema 30 min / change in vivo at 1 mg/kg: 30 min. The procedure: The ability of the compounds of the invention to inhibit paw edema induced by the exogenous administration of PLA2 is measured in the in vivo PLA2 murine paw edema assay.
as §2
Non-fasted, male CD-1 mice (8 weeks old; 31-36 grams) are placed in plastic boxes in groups of six. The right hind paw volume is measured using mercury plethysmography (zero time). […] A solution of purified PLA2, from the diamond back cotton mouth snake (A. piscivorus piscivorus) is prepared in saline at a concentration of 6 μg/ml. Fifty (50) μl (0.3 μg) of this PLA2 solution is injected subcutaneously into the right hind paw with a plastic 1 ml plastic syringe (27 gauge, 1" needle). Paw volume of the injected paw is measured again at 10 minutes, 30 minutes and 60 minutes after PLA2 injection. Animals are euthanized with CO2 at the completion of the study.
The paw edema is calculated by subtracting the zero time volume from the volume recorded at each time period. Mean paw edema for each treatment group is then calculated and expressed as (μl±S.E.). Drug effects are expressed as a percent change from control (vehicle) values. Statistical significance is determined by a one-way analysis of variance with LSD comparison to control (p<0.05). ED50 's are determined using repression analysis.

The target of assay [3] is T1, human synovial fluid PLA2 (Homo sapiens, UniProt P14555).
T1 construct: Purified human synovial fluid; from tissue; host or cells: human synovial fluid
T1 sequence (P14555 21-144): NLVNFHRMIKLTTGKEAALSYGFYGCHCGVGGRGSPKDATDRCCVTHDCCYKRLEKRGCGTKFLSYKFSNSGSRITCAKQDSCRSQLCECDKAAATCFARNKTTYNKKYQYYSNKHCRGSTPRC
Nature of the assay: In vitro isolated phospholipase A2 assay, human synovial fluid PLA2. The assay is classed as biochemical. The conditions noted are these: 10 μM; human synovial fluid; negative values denote potentiation; read-out: % Inhibition at 10 μM HSF. The protocol: The compounds of the invention are tested in an in vitro isolated phospholipase A2 assay to determine the ability of the test compounds to inhibit the release of arachidonic acid from an arachidonic acid-containing substrate by the action of phospholipase A2 enzyme from human and non-human sources.
as §1
Into a 15 mL polypropylene tube are added the following:
*pre-incubate at room temperature 30 min prior to substrate addition.
^5 Stock 10 mM prepared in dimethyl sulfoxide. Make 1:2 dilution with
dimethyl sulfoxide and add 1 μ L to 100 μL assay tube.
^6 Two human PLA2 enzymes are used:
b) Purified human synovial fluid.
Incubate the 100 μL reaction mixture for 10 minutes at 37° C. in a shaking water bath. The reaction is terminated by the addition of 2 mL tetrahydrofuran, followed by vortexing. NH2 columns (100 μg/mL--Analytichem International) are conditioned with 0.5 mL tetrahydrofuran followed by 0.5 mL tetrahydrofuran/water (2 mL:0.1 mL, v/v).
The sample is loaded onto the columns and slowly drawn through them. The hydrolyzed arachidonic acid retained in the columns is eluted therefrom with 1 mL tetrahydrofuran/glacial acetic acid (2%). The arachidonic acid is transferred to scintillation vials and quantitated by β-counting analysis. A "total counts" sample is prepared by pipetting 25 μL ^3 H-arachidonate E. coli directly into a scintillation vial to which is added 1 mL tetrahydrofuran. 10 mL aquasol (scintillation cocktail) is added to all samples. [formula]

The test system of assay [4] is TxB2 synthesis (cyclooxygenase) by rat glycogen-elicited polymorphonuclear leukocytes. Description: Inhibition of TxB2 synthesis by rat glycogen-elicited PMN (cyclooxygenase). It counts as cell-based, rat (female Wistar). The conditions noted are these: Rattus norvegicus, Leukocyte; for inhibition at 0.5 µM: negative values denote potentiation of cyclooxygenase. The procedure:
as §3, §4, §5, §6, §7, §8, §9
In this assay, the procedure of Example 19 is carried out as described. However, in order to determine cyclooxygenase activity, the samples are co-chromatographed with authentic reference [^3 H]-TxB2.
The results are calculated as in Example 19 and presented below: […]

A further assay concerns the target T2, human platelet PLA2 (Homo sapiens, UniProt P14555).
T2 construct: Semipurified human platelet acid extract PLA2; from tissue; host or cells: human platelets (semipurified acid extract)
T2 sequence (P14555 21-144): T1 sequence (P14555 21-144)
Description: In vitro isolated phospholipase A2 assay, human platelet PLA2 (arachidonic acid release from 3H-AA E. coli substrate). It counts as biochemical. Conditions: 10 μM; human platelet; negative values denote potentiation; read-out: % Inhibition at 10 μM HP.

Regarding `COc1ccc2c(c1)c(CC(=O)O)c(C)n2C(=O)c1ccc(Cl)cc1` [Indomethacin, reference compound], in the assay with LTC4, the “ED50 LTC4” value is recorded as “Not Active”.
`COC(=O)Cc1cc(OCc2ccc3ccccc3c2)ccc1Nc1c(Cl)cccc1Cl` [Example 7, 2-[(2,6-Dichlorophenyl)amino]-5-[(2-naphthalenyl)-methoxy]benzene acetic acid methyl ester]: the values for the inhibition at 10 µM (in assay [1]; in assay [3]; on human platelet PLA2) were 34%, -65.4% and 3.6%, respectively. Further, the “% Change in Edema 10 min” value in assay [2] (1 mg/kg i.p.) was -54%; in assay [2] (10 mg/kg i.p.), -32%. Besides, in assay [2] (10 mg/kg i.p.), the “% Change in Edema 30 min” value is -39%. Moreover, the change in vivo at 1 mg/kg in assay [2] (1 mg/kg i.p.) is -44%. Besides, the inhibition at 0.5 µM in assay [4] is -26%.
As for `O=C(O)Cc1cc(OCCCCOc2ccccc2)ccc1Nc1c(Cl)cccc1Cl` [Example 9, 2-[(2,6-Dichlorophenyl)amino]-5-[(4-phenoxy)butoxy]benzene acetic acid], the inhibition at 0.5 µM was 16% in assay [1] and 38% in assay [4]. For the same compound, the inhibition at 10 µM in assay [1] is 100%; in assay [3], 15.7%; in assay [4] (at 10 μM), 100%; at human platelet PLA2, 2.2%. The entries for the “% Change in Edema 3 min” value in assay [2] (10 mg/kg i.p.) and in assay [2] (50 mg/kg p.o.) were -41% and “+37%”, respectively. Also, the “% Change in Edema 10 min” value was -54% in assay [2] (10 mg/kg i.p.) and -12% in assay [2] (50 mg/kg p.o.). Besides, the figures for the “% Change in Edema 30 min” value in assay [2] (10 mg/kg i.p.) and in assay [2] (50 mg/kg p.o.) were -32% and -4%, respectively.
With `O=C(O)Cc1cc(OCc2ccc3ccccc3c2)ccc1Nc1c(Cl)cccc1Cl` [Example 8, acetic acid], the inhibition at 0.5 µM in assay [1] is 67%; in assay [4], 30%. Further, the entries for the “% Change in Edema 10 min” value in assay [2] (10 mg/kg i.p.) and in assay [2] (50 mg/kg p.o.) were -28% and “+35%”, respectively. The “% Change in Edema 30 min” value in assay [2] (10 mg/kg i.p.) was -43%; in assay [2] (50 mg/kg p.o.) it was -37%. In addition, the “% Change in Edema 60 min” value in assay [2] (10 mg/kg i.p.) is given as -47%; in assay [2] (50 mg/kg p.o.), -24%. The results for the inhibition at 10 µM (in assay [3]; at human platelet PLA2) were 42.5% and -3.9%, respectively.
Turning to `CC(C)Cc1ccc(C(C)C(=O)O)cc1` (stereo not drawn) [Ibuprofen, reference compound], in the assay with LTC4, the “ED50 LTC4” value is reported as “Not Active”.
Consider `O=C(O)Cc1cc(OCc2ccc3ccc(Cl)cc3n2)ccc1Nc1c(Cl)cccc1Cl` [Example 6, 5[(7-Chloro-2-quinolinyl)methoxy]-2-[(2,6-dichlorophenyl)amino]benzene acetic acid], for which the inhibition at 0.5 µM in assay [1] worked out at 80%. Also, in assay [2] (1 mg/kg i.p.), the “% Change in Edema 3 min” value is recorded as -4%, the “% Change in Edema 10 min” value was -18% and the change in vivo at 1 mg/kg was -12%. In assay [2] (10 mg/kg i.p.), the “% Change in Edema 10 min” value was -24%, the “% Change in Edema 30 min” value is given as -24% and the “% Change in Edema 60 min” value is -32%. Further, in assay [2] (50 mg/kg p.o.), the “% Change in Edema 10 min” value is -18%, the “% Change in Edema 30 min” value was -39% and the “% Change in Edema 60 min” value was -10%. In assay [3], the inhibition at 10 µM was 38.8%. In addition, the inhibition at 0.5 µM in assay [4] was found to be 26%. For the same compound, on human platelet PLA2, the inhibition at 10 µM is -8.6%.

The values above are taken from patent US5159085A, “2-anilino phenylacetic acid derivatives as inhibitors of PLA2 and lipoxygenase” (American Home Products Corporation, priority 1991, dated 1992).
